From patent publication US7566724B2, “Glycine derivative and use thereof” (Toray Industries, Inc., priority 2004, dated 2009) come the findings set out here.

The subject of one series is Jurkat cells. The experiment in a line: Measurement of Inhibitory Effect on Leukocyte Functions (adhesion of Jurkat cells to ligand-expressing cells or ligand-immobilized plate). Type of series: cell-based. The note with it: Homo sapiens, 0.5 h, read-out: IC50 (adhesion of Jurkat cells). As for the experimental part:
Jurkat cells which are a cell line originated from human acute T cell lymphoma were allowed to react with BCECF-AM at 37° C. for 20 minutes to fluorescently label the cells. The fluorescently labelled Jurkat cells were allowed to react with ligand-expressing cells or with a ligand-immobilized plate at 37° C. for 30 minutes. After removing non-adherent cells by washing, 1% NP40 was added to lyse the adherent cells, and fluorescence intensity was measured with Cytoflow 2300 (Millipore). From the obtained fluorescence intensity, the number of adherent cells was calculated. Each test compound was reacted with the Jurkat cells before the beginning of the adhesion reaction. In Table 18, the IC50 of each compound is shown.

Series [1] in a line: Pharmacokinetic Evaluation in Rats. Type of series: in vivo. To be noted: rat, male SD rats, administered orally or intravenously, plasma up to 8 hours, LC/MS/MS; for bioavailability: oral, read-out: BA(%) (bioavailability); for clearance: read-out: CLtot (total clearance) (converted). As for the experimental part: Each compound was dissolved at a concentration of 0.5 mg/ml in PBS or in PBS containing 10% PEG. The compound was administered orally or intravenously to male SD rats (7 to 9 weeks old). Blood was collected from the tail vein at time points up to 8 hours after the administration, and blood plasma was collected by centrifugation from each obtained blood. The blood plasma was pretreated by using the solid-phase extraction method, and the concentration of the compound was analyzed with LC/MS/MS (ESI negative mode).
As the Comparative Compound, 2-[4-((3,5-dichlorobenzensulfonylamino)methyl)benzoylamino]-5-(4-(methyl-pyrimidin-2-ylamino)phenyl)pento-4-ene acid (XXI) described in WO 99/26923 was used.
[“BA” in Table 17 means bioavailability, and “CLtot” means total clearance.]

Series [2] deals with leukotriene B4 production by neutrophils. The experiment in a line: Measurement of Inhibitory Effect on Inflammatory Mediator Production by Leukocytes (ionomycin-induced leukotriene B4 in neutrophils). The series is classed as cell-based. The note with it: 0.5 h, human neutrophil suspension, 37° C. 30 minutes, EIA. As for the experimental part:
A mixture of human peripheral blood and physiological saline containing 3% dextran was left to stand for 30 minutes and then the upper layer was recovered. The upper layer was overlaid on Histopaque 1077 (SIGMA), and the resultant was centrifuged at 1400 rpm for 30 minutes. The supernatant was removed by aspiration and a buffer was added to the precipitate to prepare a neutrophil suspension (4×10^5 cells/mL). To the neutrophil suspension, ionomycin was added and the mixture was incubated at 37° C. for 30 minutes, followed by quantification of leukotriene B4 by EIA (Amersham, Biotrak EIA system). Each test compound was added to the neutrophil suspension before adding ionomycin. In Table 19, the IC50 of each compound is shown.

Setting [3] is: fluorescently labelled Jurkat cells, ligand-expressing cells or ligand-immobilized plate, 37° C. 30 minutes.

Counter-ions that a name gives are not always drawn. Like-named read-outs stand apart in the source and are kept apart here.

By IC50 is commonly meant the concentration that gives 50% inhibition. Consider `CC(C)CN(c1ccc(/C=C/CC(NC(=O)c2c(Cl)cccc2Cl)C(=O)O)cc1)c1ncccn1` (stereo not drawn) [Example 55, (E)-2-(2,6-Dichlorobenzamido)-5-[4-(isobutyl-pyrimidin-2-ylamino)phenyl]pent-4-enoic acid sodium salt], for which the IC50 in the series on Jurkat cells (Jurkat) is 420 nM.

A word on the bioavailability: it is dose-corrected exposure relative to a reference, in per cent. Turning to `COC(=O)C(C/C=C/c1ccc(N(CCC#N)c2ncccn2)cc1)NC(=O)c1c(F)cccc1F` (stereo not drawn) [Example 70, (E)-5-[4-((2-Cyano-ethyl)-pyrimidin-2-yl-amino)-phenyl]-2-(2,6-difluorobenzamido)-pent-4-enoic acid methyl ester], in series [1], the bioavailability is 63.4% and the clearance is 8.87 mL/min/kg.

As to `CCCCN(c1ccc(/C=C/CC(NC(=O)c2c(Cl)cccc2Cl)C(=O)O)cc1)c1ncccn1` (stereo not drawn) [Example 37, (E)-5-(4-Butyl-pyrimidin-2-yl-amino)-phenyl]-2-(2,6-dichlorobenzamido)-pent-4-enoic acid sodium salt], the IC50 with Jurkat cells (Jurkat) came to 160 nM.

In series [2], `O=C(NC(C/C=C/c1ccc(N(Cc2ccccc2)c2ncccn2)cc1)C(=O)O)c1c(Cl)cccc1Cl` (stereo not drawn) [Example 33, (E)-5-[4-(Benzyl-pyrimidin-2-yl-amino)-phenyl]-2-(2,6-dichlorobenzamido)-pent-4-enoic acid sodium salt] yielded an IC50 of 16300 nM.

For the compound `O=C(NC(C/C=C/c1ccc(N(CC2CC2)c2ncccn2)cc1)C(=O)O)c1c(Cl)cccc1Cl` (stereo not drawn) [Example 53, (E)-5-[4-(Cyclopropylmethyl-pyrimidin-2-ylamino)phenyl]-2-(2,6-dichlorobenzamido)pent-4-enoic acid sodium salt], the IC50 in the series with Jurkat cells (Jurkat) was determined as 120 nM.

As to `Cc1cccc(C)c1C(=O)NC(C/C=C/c1ccc(N(C)c2ncccn2)cc1)C(=O)O` (stereo not drawn) [Example 69, (E)-2-(2,6-Dimethylbenzamido)-5-[4-(methyl-pyrimidin-2-ylamino)phenyl]pent-4-enoic acid], in the series with Jurkat cells (setting [3]), the IC50 was determined as 530 nM.

For `CCCN(c1ccc(/C=C/CC(NC(=O)c2c(Cl)cccc2Cl)C(=O)O)cc1)c1ncccn1` (stereo not drawn) [Example 57, (E)-2-(2,6-Dichlorobenzamido)-5-[4-(propyl-pyrimidin-2-ylamino)phenyl]pent-4-enoic acid], the IC50 in the series on Jurkat cells (setting [3]) is 110 nM.

Take `COC1(c2ccc(/C=C/CC(NC(=O)c3c(Cl)cccc3Cl)C(=O)O)cc2)CCCOCC1` (stereo not drawn) [Example 10, (E)-2-(2,6-Dichlorobenzamido)-5-[4-(4-methoxyoxepan-4-yl)phenyl]pent-4-enoic acid sodium salt]: the IC50 with Jurkat cells (setting [3]) amounted to 220 nM.

Take `CN(c1ccc(/C=C/CC(NC(=O)c2ccc(CNS(=O)(=O)c3cc(Cl)cc(Cl)c3)cc2)C(=O)O)cc1)c1ncccn1` (stereo not drawn) [Comparative Compound, 2-[4-((3,5-dichlorobenzensulfonylamino)methyl)benzoylamino]-5-(4-(methyl-pyrimidin-2-ylamino)phenyl)pento-4-ene acid, reference compound]: in series [1], the bioavailability came to 1.7% and the clearance is 21.4 mL/min/kg.

Take `O=C(NC(C/C=C/c1ccc(N(Cc2ccc(O)cc2)c2ncccn2)cc1)C(=O)O)c1c(Cl)cccc1Cl` (stereo not drawn) [Example 29, (E)-2-(2,6-Dichlorobenzamido)-5-[4-((4-hydroxy-benzyl)-pyrimidin-2-ylamino)phenyl]pent-4-enoic acid]: in the series with Jurkat cells (setting [3]), the IC50 was 41 nM.

Regarding `O=C(NC(C/C=C/c1ccc(N(c2ccccc2)c2ncccn2)cc1)C(=O)O)c1c(Cl)cccc1Cl` (stereo not drawn) [Example 47, (E)-2-(2,6-Dichlorobenzamido)-5-[4-(phenyl-pyrimidin-2-ylamino)phenyl]pent-4-enoic acid sodium salt], the IC50 in the series on Jurkat cells (setting [3]) worked out at 930 nM.

As for `O=C(NC(C/C=C/c1ccc(Oc2ncccn2)cc1)C(=O)O)c1c(Cl)cccc1Cl` (stereo not drawn) [Example 12, (E)-2-(2,6-Dichlorobenzamido)-5-[4-(pyrimidin-2-yloxy)phenyl]pent-4-enoic acid], the IC50 with Jurkat cells (setting [3]) worked out at 220 nM.

`O=C(NC(C/C=C/c1ccc(N(Cc2cscn2)c2ncccn2)cc1)C(=O)O)c1c(Cl)cccc1Cl` (stereo not drawn) [Example 41, (E)-2-(2,6-Dichlorobenzamido)-5-[4-(pyrimidin-2-yl-thiazol-4-ylmethyl-amino)phenyl]pent-4-enoic acid sodium salt]: the IC50 in the series on Jurkat cells (setting [3]) was determined as 950 nM.

Regarding `O=C(NC(C/C=C/c1ccc(N(Cc2ccccn2)c2ncccn2)cc1)C(=O)O)c1c(Cl)cccc1Cl` (stereo not drawn) [Example 61], in the series with Jurkat cells (setting [3]), the IC50 turned out to be 33 nM.

Take `COCC1(c2ccc(/C=C/CC(NC(=O)c3c(Cl)cccc3Cl)C(=O)O)cc2)CCOCC1` (stereo not drawn) [Example 8, (E)-2-(2,6-Dichlorobenzamido)-5-[4-(tetrahydro-4-(methoxymethyl)-2H-pyran-4-yl)phenyl]pent-4-enoic acid sodium salt]: the IC50 in the series on Jurkat cells (setting [3]) amounted to 69 nM.

For the compound `CCOC1(c2ccc(/C=C/CC(NC(=O)c3c(Cl)cccc3Cl)C(=O)O)cc2)CCOCC1` (stereo not drawn) [Example 6, (E)-2-(2,6-Dichlorobenzamido)-5-[4-(4-ethoxytetrahydropyran-4-yl)-phenyl]pent-4-enoic acid], in series [1], the bioavailability is 68.5% and the clearance was 19.8 mL/min/kg. In addition, in series [2], the midpoint of inhibition, the IC50, lay at 5630 nM.

For `O=C(NC(C/C=C/c1ccc(N(Cc2cccnc2)c2ncccn2)cc1)C(=O)O)c1c(Cl)cccc1Cl` (stereo not drawn) [Example 39, (E)-2-(2,6-Dichlorobenzamido)-5-[4-(pyridin-3-ylmethyl-pyrimidin-2-ylamino)phenyl]pent-4-enoic acid sodium salt], the IC50 in the series with Jurkat cells (setting [3]) was found to be 71 nM.

With `N#CCCN(c1ccc(/C=C/CC(NC(=O)c2c(Cl)cccc2Cl)C(=O)O)cc1)c1ncccn1` (stereo not drawn) [Example 31, (E)-5-[4-((2-Cyano-ethyl)-pyrimidin-2-yl-amino)-phenyl]-2-(2,6-dichlorobenzamido)-pent-4-enoic acid sodium salt], in the series with Jurkat cells (setting [3]), the IC50 is 41 nM.

Turning to `Cc1cccc(Cl)c1C(=O)NC(C/C=C/c1ccc(N(C)c2ncccn2)cc1)C(=O)O` (stereo not drawn) [Example 67, (E)-2-(2-Chloro-6-methylbenzamido)-5-[4-(methyl-pyrimidin-2-ylamino)phenyl]pent-4-enoic acid], the values for the IC50 (in the series with Jurkat cells (setting [3]); in series [2]) were 280 nM and 30000 nM, respectively.

Consider `O=C(NC(C/C=C/c1ccc(N(Cc2ccncc2)c2ncccn2)cc1)C(=O)O)c1c(Cl)cccc1Cl` (stereo not drawn) [Example 59, (E)-2-(2,6-Dichlorobenzamido)-5-[4-(pyridin-4-ylmethyl-pyrimidin-2-ylamino)phenyl]pent-4-enoic acid], for which the IC50 with Jurkat cells (setting [3]) stood at 43 nM.

In the case of `COc1cc(OC)nc(N(C)c2ccc(/C=C/CC(NC(=O)c3c(Cl)cccc3Cl)C(=O)O)cc2)n1` (stereo not drawn) [Example 45, (E)-2-(2,6-Dichlorobenzamido)-5-[4-((4,6-dimethoxy-pyrimidin-2-yl)-methyl-amino)phenyl]pent-4-enoic acid], the half-maximal inhibitory concentration (IC50) in the series on Jurkat cells (setting [3]) turned out to be 890 nM.

In the case of `O=C(NC(C/C=C/c1ccc(N(c2ncccn2)C2CCOCC2)cc1)C(=O)O)c1c(Cl)cccc1Cl` (stereo not drawn) [Example 49, (E)-2-(2,6-Dichlorobenzamido)-5-[4-(pyrimidin-2-yl-(tetrahydro-pyran-4-yl)-amino)phenyl]pent-4-enoic acid sodium salt], in the series with Jurkat cells (setting [3]), the IC50 was 79 nM.

Regarding `COCCN(c1ccc(/C=C/CC(NC(=O)c2c(Cl)cccc2Cl)C(=O)O)cc1)c1ncccn1` (stereo not drawn) [Example 26, (E)-2-(2,6-Dichlorobenzamido)-5-[4-((2-methoxyethyl)-pyrimidin-2-ylamino)phenyl]pent-4-enoic acid sodium salt], in the series on Jurkat cells (setting [3]), the IC50 is 36 nM.

In the case of `COc1ccc(CN(c2ccc(/C=C/CC(NC(=O)c3c(Cl)cccc3Cl)C(=O)O)cc2)c2ncccn2)cc1` (stereo not drawn) [Example 35, (E)-2-(2,6-Dichlorobenzamido)-5-[4-((4-methoxy-benzyl)-pyrimidin-2-ylamino)phenyl]pent-4-enoic acid sodium salt], the IC50 with Jurkat cells (setting [3]) was determined as 88 nM.

Regarding `CCN(c1ccc(/C=C/CC(NC(=O)c2c(Cl)cccc2Cl)C(=O)O)cc1)c1ncccn1` (stereo not drawn) [Example 24, (E)-2-(2,6-Dichlorobenzamido)-5-[4-(ethyl-pyrimidin-2-ylamino)phenyl]pent-4-enoic acid], in the series with Jurkat cells (setting [3]), the IC50 came out at 220 nM. In series [1], the bioavailability turned out to be 42.3% and the clearance was 12.6 mL/min/kg.

For `CCOC1(c2ccc(/C=C/CC(NC(=O)c3c(Cl)cccc3Cl)C(=O)OC)cc2)CCOCC1` (stereo not drawn) [Example 5, (E)-2-(2,6-Dichlorobenzamido)-5-[4-(4-ethoxytetrahydropyran-4-yl)-phenyl]pent-4-enoic acid methyl ester], in the series on Jurkat cells (setting [3]), the IC50 amounted to 100 nM.
